# Reference: paper PMC10483525, “Synthesis, Structural Investigations, DNA/BSA Interactions, Molecular Docking Studies, and Anticancer Activity of a New 1,4-Disubstituted 1,2,3-Triazole Derivative” (ACS Omega, 2023)
# Experiments:
# EB + CT-DNA adduct = experiment: EB displacement (competitive fluorescence emission quenching); format: binding; conditions: EB 5 μM + CT-DNA 25 μM
# Protocol: The competitive emission quenching experiment was carried out using a well-known intercalating agent and fluorescent probe for DNA, ethidium bromide (EtBr).[83] The compound in varying concentrations (0–150) was added to the [EB (5 μM) + CT-DNA (25 μM)] adduct. The excitation wavelength was fixed to 510 nm, and the emission spectra were recorded (λem = 500–700 nm). The quenching efficiency of the compound was analyzed using the Stern–Volmer and Scatchard equations, and the Stern–Volmer (quenching) constant, Ksv, the bimolecular quenching rate constant, kq, binding constant, Kbin, and the number of binding sites per nucleotide, n, were calculated.[84]
# Absorption spectral studies […]
# sufficiently free of protein. The DNA concentration per nucleotide was determined by […]
# sample solutions to eliminate the absorbance of CT-DNA. […]
# mixture was allowed to incubate for 5 minutes before the absorption spectrum was recorded.
# The intrinsic binding constant Kb of compound was calculated by using Wolfe-Shimmer […]
# Fluorescence spectral studies
# The fluorescence quenching experiments were performed for additional support for binding of […]
# EB+CT-DNA solution. The fluorescence spectra of 200 μL/well solutions in a 96-well plate
# were recorded with 510 nm excitation and the emission spectra of constant [EB+CT-DNA] with
# varying the compound concentration were recorded (λ em =500–700). […]
# [1] = target: T1, BSA (bovine serum albumin) (Bos taurus, UniProt P02769); experiment: BSA UV–vis absorption; format: binding; conditions: BSA 10 μM + compound 10 μM
# T1 construct: purchased Merck/Sigma
# Protocol: The BSA–compound interactions are studied by comparing the UV–vis spectra (200–400 nm) of BSA (10 μM) alone and a mixture of [BSA (10 μM) + compound 3 (10 μM)] at room temperature in 10 mM Tris-HCl buffer with a pH of 7.4.[85]
# Caco-2 cells [2] = experiment: ROS determination (flow cytometry); format: cell-based, human; conditions: Caco-2, 48 h, 0, 7.5, 1.5, and 30 μM
# Protocol: Biosciences, San Jose, CA, USA)
# The intracellular ROS generation was evaluated using The Total Reactive Oxygen Species
# (ROS) Assay Kit. Caco2 cells (5x10^5 per well) were seeded in 6-well plates and were incubated for 24 h in a 37°C incubator with 5% CO2. Then cells were treated with compound 3 ([…]) for 48 h to induce production of ROS. Cells were harvested and incubated with 10 […] H2DCFDA for 30 min at 37°C incubator with 5% CO2, followed by resuspending three times with pre-warmed HBSS (2000 rpm×3 min). Total ROS levels in live cells were measured using a flow cytometry (BD Biosciences, San Jose, CA, USA).
# Caco-2 cells [3] = experiment: Annexin V/PI double-staining apoptosis assay (flow cytometry); format: cell-based, human; conditions: 48 h
# Protocol: calculated from graph. All assays were performed in three replicates per concentration level. 11
# 8. Annexin-V/PI Double-Staining Assay
# Caco-2 (5x10^5 per well) were seeded in 6-well culture plates in medium and incubated for 24 h at 37°C. Then cells were either untreated or treated with the compound 3 (7.5, 15, 30 μM) for additional 48 h. The cells were harvested and resuspended in 400 μl of 1× binding buffer containing Annexin V-FITC (5 μl) and PI (5 μl), and cells were incubated for 15 min at RT (25°C) in the dark. The results were evaluated immediately through flow cytometry (BD Biosciences, San Jose, CA, USA) within 1 h using Annexin V-FITC staining kit (BD […]
# T1 sequence (P02769 25-607): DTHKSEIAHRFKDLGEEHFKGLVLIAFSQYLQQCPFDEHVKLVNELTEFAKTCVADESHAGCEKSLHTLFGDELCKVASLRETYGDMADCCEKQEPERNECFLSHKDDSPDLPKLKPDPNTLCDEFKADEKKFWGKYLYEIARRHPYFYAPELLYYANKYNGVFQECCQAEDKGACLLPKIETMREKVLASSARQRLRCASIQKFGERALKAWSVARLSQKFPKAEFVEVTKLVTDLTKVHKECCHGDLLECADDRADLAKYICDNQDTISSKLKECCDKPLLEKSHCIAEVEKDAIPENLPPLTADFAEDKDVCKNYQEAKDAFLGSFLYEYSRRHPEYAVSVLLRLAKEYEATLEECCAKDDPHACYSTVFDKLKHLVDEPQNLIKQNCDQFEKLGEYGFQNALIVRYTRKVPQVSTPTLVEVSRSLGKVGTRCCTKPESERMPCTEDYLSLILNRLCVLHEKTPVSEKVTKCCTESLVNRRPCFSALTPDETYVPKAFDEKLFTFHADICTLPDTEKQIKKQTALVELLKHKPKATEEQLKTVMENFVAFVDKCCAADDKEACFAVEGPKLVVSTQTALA
structure (smiles),measurement,setting,value
"O=Cc1ccc(OCc2cn(-c3ccc(Cl)c(Cl)c3)nn2)cc1O [Compound 3, 4-((1-(3,4-Dichlorophenyl)-1H-1,2,3-triazol-4-yl)methoxy)-2-hydroxybenzaldehyde]",Ksv (Stern–Volmer quenching constant),"EB + CT-DNA adduct; compound 0–150 μM, λex 510 nm, emission 602 nm",4.13 × 10^3 M^–1
same,Kbin (binding constant),EB + CT-DNA adduct; Scatchard equation,3.45 × 10^4 M^–1
same,melting point,,144 to 145 °C
same,Δλ (blue shift of BSA absorption),[1],~1 nm
same,ROS production (fluorescence intensity),Caco-2 cells [2],increased the fluorescence intensity
same,percentage of apoptosis (early + late),"Caco-2 cells [3]; Caco-2, 7.5 μM",46.09%
same,percentage of apoptosis (early + late),"Caco-2 cells [3]; Caco-2, 15 μM",57.77%
same,percentage of apoptosis (early + late),"Caco-2 cells [3]; Caco-2, 30 μM",70.25%
